The source made the active and inactive calls.
Assays:
[1] = target: 72 kDa type IV collagenase (Homo sapiens, UniProt P08253); assay: Dose Response validation of uHTS RPN11 inhibitor hits using a MMP-2 Fluorescence assay.; assay type: functional
[2] = target: 26S proteasome non-ATPase regulatory subunit 14 (Homo sapiens, UniProt O00487); assay: inhibition of proteasome subunit RPN11 – biochemical, fluorescence polarization, uHTS hits, confirmation (AID 602368); assay type: functional
Prothrombin = Prothrombin (Bos taurus, UniProt P00735); assay: thrombin inhibition, dose response, biochemical, fluorescence polarization, uHTS hits (AID 602369); assay type: functional
[3] = target: T1, Carboxy-terminal domain RNA polymerase II polypeptide A small phosphatase 1 (Homo sapiens, UniProt Q9GZU7); assay: inhibitors of CTDSP1, concentration-response testing, biochemical assay, absorbance-based, actives from ultra-high-throughput screening (AID 540297); assay type: functional
T1 sequence (Q9GZU7 whole entry): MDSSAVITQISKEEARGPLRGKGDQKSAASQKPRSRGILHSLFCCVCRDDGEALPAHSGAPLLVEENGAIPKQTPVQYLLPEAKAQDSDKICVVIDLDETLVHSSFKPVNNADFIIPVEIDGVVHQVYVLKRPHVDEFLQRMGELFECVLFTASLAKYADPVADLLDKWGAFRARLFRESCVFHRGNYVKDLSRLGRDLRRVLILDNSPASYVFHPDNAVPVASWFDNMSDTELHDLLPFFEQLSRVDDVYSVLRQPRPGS

[4] = HepG2 cell cytotoxicity, dose response, cytotoxicity control, plate reader, cherry-pick, antagonist series (AID 743416); assay type: functional, cell-based
[5] = LGR2 antagonists, dose response, cell-based, HEK293, CRE-luciferase reporter, cherry pick, set 2 (AID 743343); assay type: functional;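 note: transfected cells were stimulated with diluted bursicon conditioned medium after compound addition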
[6] = MC4R antagonists, dose response, counter-screen for LGR2 antagonist project, cell-based, plate reader, cherry pick (AID 743444); assay type: functional;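 note: transfected HEK 293 cells stimulated with alpha-MSH peptide; potency of inhibitors of the alpha-MSH evoked signal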
[7] = inhibitors of SNCA 5'UTR-driven reporter translation, confirmation, H4 neuroglioma cells, luminescence (AID 1988); assay type: functional, cell-based
[8] = Luminescence Cell-Based Dose Response HTS to Identify Inhibitors of 5'UTR Stem-Loop Driven Prion Protein mRNA Translation in H4 Neuroglioblastoma Cells. [Related pubchem assays: 1827 (Project Summary), 1813 (Primary HTS)]; assay type: functional
HEK293 = assay: inhibitors of LMP1-driven NF-kB reporter, dose response, cell-based, HEK293, luciferase, cherry-pick (AID 588343); assay type: functional; settings: Homo sapiens
[9] = HEK293 cell cytotoxicity, dose response, cytotoxicity control, plate reader, cherry-picked samples (AID 743446); assay type: functional, cell-based
[10] = A549 cell cytotoxicity, dose response, cytotoxicity control, plate reader, cherry-pick, antagonist series (AID 743412); assay type: functional, cell-based
[11] = Counterscreen for AddAB inhibitors: absorbance-based bacterial cell-based high throughput dose response assay for inhibitors of bacterial viability. [Related pubchem assays (depositor defined):AID435030, AID449728, AID449731, AID488942, AID488955, AID488956]; assay type: functional
[12] = target: Beta-2 adrenergic receptor (Homo sapiens, UniProt P07550); assay: beta2AR agonists driving receptor internalization, dose response, cell-based, FAP fluorogen, flow cytometry, cherry pick 1 (AID 588763); assay type: functional
Sequence of Beta-2 adrenergic receptor (P07550 whole entry): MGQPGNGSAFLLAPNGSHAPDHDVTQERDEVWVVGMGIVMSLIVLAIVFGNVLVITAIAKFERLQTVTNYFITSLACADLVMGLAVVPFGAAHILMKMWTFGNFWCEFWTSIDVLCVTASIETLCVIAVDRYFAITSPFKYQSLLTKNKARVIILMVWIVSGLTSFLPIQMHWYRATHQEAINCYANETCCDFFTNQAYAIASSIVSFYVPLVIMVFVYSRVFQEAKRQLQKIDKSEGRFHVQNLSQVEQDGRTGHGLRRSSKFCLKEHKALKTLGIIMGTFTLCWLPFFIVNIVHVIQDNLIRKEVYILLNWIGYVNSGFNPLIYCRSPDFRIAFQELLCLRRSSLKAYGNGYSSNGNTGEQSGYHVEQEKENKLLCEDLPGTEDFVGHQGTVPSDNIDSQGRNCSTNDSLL

Exodeoxyribonuclease V = Exodeoxyribonuclease V (Escherichia coli (strain K12), UniProt P04993+P07648+P08394); assay: E. coli RecBCD inhibitors, dose response, counter-screen for AddAB inhibitor project, absorbance, V66 E. coli, mutant T4 phage (AID 492957); assay type: functional, cell-based, Escherichia coli str. K-12 substr. MG1655
Sequence of Exodeoxyribonuclease V (P04993 whole entry): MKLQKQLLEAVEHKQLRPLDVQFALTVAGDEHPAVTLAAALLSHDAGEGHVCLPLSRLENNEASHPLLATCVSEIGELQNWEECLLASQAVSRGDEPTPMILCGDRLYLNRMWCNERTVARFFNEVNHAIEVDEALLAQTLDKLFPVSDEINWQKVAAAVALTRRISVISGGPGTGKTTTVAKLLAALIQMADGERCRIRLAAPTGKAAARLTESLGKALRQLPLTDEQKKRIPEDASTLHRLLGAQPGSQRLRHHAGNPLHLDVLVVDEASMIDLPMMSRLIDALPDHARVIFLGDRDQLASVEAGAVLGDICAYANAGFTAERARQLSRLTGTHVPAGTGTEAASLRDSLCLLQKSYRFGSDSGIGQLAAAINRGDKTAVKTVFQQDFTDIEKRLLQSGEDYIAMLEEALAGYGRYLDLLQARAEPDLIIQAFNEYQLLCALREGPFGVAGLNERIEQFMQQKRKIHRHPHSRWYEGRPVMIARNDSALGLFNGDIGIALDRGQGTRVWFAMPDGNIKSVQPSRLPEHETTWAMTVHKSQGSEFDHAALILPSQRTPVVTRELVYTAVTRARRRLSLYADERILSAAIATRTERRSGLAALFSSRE
Sequence of Exodeoxyribonuclease V (P07648 whole entry): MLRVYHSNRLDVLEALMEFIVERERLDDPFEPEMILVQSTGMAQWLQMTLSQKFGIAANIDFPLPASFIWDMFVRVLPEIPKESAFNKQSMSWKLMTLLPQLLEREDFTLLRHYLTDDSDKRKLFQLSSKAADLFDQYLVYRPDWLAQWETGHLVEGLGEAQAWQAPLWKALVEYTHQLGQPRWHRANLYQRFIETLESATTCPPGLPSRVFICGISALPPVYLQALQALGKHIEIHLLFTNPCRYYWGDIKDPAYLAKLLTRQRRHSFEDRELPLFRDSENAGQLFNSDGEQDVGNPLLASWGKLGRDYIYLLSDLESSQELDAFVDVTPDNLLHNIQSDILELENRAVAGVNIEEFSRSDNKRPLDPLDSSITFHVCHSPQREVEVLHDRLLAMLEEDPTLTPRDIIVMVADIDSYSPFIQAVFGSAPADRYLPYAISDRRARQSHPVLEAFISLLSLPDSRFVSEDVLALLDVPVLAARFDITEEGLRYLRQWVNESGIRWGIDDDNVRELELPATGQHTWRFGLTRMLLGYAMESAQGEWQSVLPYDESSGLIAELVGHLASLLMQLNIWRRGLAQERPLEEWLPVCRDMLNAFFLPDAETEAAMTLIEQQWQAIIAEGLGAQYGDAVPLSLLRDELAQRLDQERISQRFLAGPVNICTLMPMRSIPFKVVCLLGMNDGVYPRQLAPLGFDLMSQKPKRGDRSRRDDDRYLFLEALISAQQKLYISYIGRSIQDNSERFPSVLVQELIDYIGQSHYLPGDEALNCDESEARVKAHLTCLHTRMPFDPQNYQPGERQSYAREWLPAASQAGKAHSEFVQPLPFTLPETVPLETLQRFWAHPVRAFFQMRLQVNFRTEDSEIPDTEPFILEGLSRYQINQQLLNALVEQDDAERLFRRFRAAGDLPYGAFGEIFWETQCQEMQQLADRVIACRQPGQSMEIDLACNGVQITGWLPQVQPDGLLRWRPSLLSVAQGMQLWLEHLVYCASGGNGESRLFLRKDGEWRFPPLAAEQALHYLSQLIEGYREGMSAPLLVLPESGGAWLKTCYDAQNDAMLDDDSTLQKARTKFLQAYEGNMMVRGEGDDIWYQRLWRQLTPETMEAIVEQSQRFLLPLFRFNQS
Sequence of Exodeoxyribonuclease V (P08394 whole entry): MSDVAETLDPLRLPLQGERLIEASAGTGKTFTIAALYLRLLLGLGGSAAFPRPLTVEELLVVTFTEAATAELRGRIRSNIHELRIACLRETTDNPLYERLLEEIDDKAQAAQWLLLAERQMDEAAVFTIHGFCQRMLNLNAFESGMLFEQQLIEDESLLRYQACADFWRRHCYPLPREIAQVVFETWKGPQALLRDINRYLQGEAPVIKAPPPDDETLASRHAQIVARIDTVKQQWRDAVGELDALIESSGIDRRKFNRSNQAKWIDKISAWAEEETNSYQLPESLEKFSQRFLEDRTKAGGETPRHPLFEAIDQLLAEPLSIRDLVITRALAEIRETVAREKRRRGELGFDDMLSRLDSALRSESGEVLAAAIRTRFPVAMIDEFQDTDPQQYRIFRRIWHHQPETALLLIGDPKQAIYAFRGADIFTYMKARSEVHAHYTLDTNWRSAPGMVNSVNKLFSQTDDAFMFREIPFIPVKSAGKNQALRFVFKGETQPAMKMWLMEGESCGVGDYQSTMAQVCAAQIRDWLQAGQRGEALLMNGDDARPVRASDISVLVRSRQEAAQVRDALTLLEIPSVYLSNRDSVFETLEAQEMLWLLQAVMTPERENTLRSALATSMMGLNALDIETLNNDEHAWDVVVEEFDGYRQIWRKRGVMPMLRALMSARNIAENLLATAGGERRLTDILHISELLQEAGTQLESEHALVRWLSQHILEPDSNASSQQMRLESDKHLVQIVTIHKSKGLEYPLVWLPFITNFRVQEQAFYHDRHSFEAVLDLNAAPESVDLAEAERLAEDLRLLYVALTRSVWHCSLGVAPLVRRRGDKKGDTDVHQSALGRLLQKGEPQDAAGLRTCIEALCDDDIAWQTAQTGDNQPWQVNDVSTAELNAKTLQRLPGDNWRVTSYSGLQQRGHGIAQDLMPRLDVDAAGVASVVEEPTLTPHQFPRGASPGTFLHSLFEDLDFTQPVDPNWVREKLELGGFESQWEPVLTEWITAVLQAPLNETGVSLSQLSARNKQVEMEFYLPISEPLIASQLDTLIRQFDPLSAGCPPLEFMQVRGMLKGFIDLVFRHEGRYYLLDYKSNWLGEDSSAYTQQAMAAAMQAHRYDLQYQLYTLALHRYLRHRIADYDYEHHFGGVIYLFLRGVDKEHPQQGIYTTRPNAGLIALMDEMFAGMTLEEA

Sequence of 72 kDa type IV collagenase (P08253 whole entry): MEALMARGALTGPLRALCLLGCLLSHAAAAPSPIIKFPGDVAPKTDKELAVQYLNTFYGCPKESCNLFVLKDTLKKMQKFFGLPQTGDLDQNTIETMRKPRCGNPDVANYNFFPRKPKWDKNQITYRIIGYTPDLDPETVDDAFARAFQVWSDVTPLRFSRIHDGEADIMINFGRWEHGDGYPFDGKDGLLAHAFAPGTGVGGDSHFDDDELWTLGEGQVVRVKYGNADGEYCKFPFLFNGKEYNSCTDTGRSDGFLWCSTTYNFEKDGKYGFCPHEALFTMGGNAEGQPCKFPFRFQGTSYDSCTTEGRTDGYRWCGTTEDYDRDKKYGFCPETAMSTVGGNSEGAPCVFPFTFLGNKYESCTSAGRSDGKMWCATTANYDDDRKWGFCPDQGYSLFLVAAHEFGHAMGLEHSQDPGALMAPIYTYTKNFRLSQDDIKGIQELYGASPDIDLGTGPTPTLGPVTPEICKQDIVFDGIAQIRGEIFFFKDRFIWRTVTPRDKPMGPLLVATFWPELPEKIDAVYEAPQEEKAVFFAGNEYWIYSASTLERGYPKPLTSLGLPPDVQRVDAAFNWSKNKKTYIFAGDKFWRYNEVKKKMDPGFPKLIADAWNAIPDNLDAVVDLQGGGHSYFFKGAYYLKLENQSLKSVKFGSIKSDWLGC
Sequence of 26S proteasome non-ATPase regulatory subunit 14 (O00487 whole entry): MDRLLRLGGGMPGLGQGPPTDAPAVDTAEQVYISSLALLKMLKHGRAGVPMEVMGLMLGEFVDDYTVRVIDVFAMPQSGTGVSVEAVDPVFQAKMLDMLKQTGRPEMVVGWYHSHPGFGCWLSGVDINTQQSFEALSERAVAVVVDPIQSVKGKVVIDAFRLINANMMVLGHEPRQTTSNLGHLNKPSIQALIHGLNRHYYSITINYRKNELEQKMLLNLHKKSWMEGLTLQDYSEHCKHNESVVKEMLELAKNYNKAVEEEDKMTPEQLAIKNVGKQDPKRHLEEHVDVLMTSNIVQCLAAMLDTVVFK

For O=Cc1sc(Nc2ccccc2)nc1Cl, the IC50 [1] was > 100 µM (inactive), the IC50 [2] was 8.23 µM (active) and the IC50 (Prothrombin) was 11.4 µM (active).

In the case of O=C(NNc1ncnc2ccccc12)c1cccc(Cl)c1, the IC50 [1] is reported as > 100 µM (inactive), the IC50 [2] is reported as 24.8 µM (active) and the IC50 (Prothrombin) is reported as 71.3 µM (active). The IC50 [3] was 18.5 µM (active).

For O=C(Nc1ccccn1)c1onc2c1CCCC2, the AC50 [4] was 15.9 µM (active), the AC50 [5] was 3.65 µM (active) and the AC50 [6] was 3.55 µM (active). The EC50 [7] was 4.67 µM (active), the EC50 [8] was 50.2 µM (active) and the AC50 (HEK293) was 1.46 µM (active). The AC50 [9] was > 52 µM (inactive) and the AC50 [10] was 45.1 µM (active).

In the case of CCOC(=O)c1cn(C2CC2)c2c(F)c(NCCCN(C)C)c(F)cc2c1=O, the IC50 [11] is reported as 75.9 µM (inactive), the EC50 [12] is reported as 0.353 µM (active) and the IC50 (Exodeoxyribonuclease V) is reported as > 119 µM (inactive).

Source: ChEMBL document CHEMBL1201862, “PubChem BioAssay data set” (2004)
